What follows are molecules tested against human recombinant PDE4B1 enzyme (Homo sapiens (Human), UniProt Q07343) (assay: Inhibition of PDE4B1 activity by cAMP HTRF assay). Settings: human recombinant PDE4B1, cAMP 40 nM, pH 7.4.
Format: biochemical
Experimental: Determination of the inhibition of the compounds on PDE4B1 activity by using cAMP HTRF® assay
The inhibitory effect of the compounds on human PDE4B1 enzyme activity was determined by quantifying the 5′-adenosine monophosphate (5′-AMP) formed from 3′,5′-cyclic adenosine monophosphate (cAMP).
The test compound or water (control) and human recombinant PDE4B1 enzyme (4.8 U) were mixed in a buffer solution (pH 7.4) consisting of 1× Hanks' balanced salt solution (HBSS), 5 mM HEPES, 3 mM MgCl2, and 0.1% BSA and incubated for 10 min. A cAMP enzyme substrate (final concentration 40 nM) was added, and the mixture was incubated at room temperature for 60 min. Then a fluorescent acceptor (Dye2 labeled with cAMP), a fluorescent donor (anti-cAMP antibody labeled with europium cryptate) and a non-specific phosphodiesterase inhibitor IBMX (3-isobutyl-1-methyl xanthine; final concentration 1 mM) were added. After 60 min, the fluorescence transfer related to the amount of remaining cAMP was measured on a microplate reader (Rubystar, BMG) at λex=337 nm, λem=620 nm and λem=665 nm. The enzyme activity is calculated from the ratio of the signals measured at 665 nm and 620 nm. The results are expressed as percent inhibition of the enzyme activity of the control (without PDE4 inhibitor). The enzyme was omitted for measurement of the basic control. The IC50 value (IC50=the concentration that caused the half-maximum inhibition of the specific activity of the control) is derived from dose-response measurements with eight different concentrations (n=2; repeated 2 times)

Chain of human recombinant PDE4B1 enzyme (Q07343 whole entry): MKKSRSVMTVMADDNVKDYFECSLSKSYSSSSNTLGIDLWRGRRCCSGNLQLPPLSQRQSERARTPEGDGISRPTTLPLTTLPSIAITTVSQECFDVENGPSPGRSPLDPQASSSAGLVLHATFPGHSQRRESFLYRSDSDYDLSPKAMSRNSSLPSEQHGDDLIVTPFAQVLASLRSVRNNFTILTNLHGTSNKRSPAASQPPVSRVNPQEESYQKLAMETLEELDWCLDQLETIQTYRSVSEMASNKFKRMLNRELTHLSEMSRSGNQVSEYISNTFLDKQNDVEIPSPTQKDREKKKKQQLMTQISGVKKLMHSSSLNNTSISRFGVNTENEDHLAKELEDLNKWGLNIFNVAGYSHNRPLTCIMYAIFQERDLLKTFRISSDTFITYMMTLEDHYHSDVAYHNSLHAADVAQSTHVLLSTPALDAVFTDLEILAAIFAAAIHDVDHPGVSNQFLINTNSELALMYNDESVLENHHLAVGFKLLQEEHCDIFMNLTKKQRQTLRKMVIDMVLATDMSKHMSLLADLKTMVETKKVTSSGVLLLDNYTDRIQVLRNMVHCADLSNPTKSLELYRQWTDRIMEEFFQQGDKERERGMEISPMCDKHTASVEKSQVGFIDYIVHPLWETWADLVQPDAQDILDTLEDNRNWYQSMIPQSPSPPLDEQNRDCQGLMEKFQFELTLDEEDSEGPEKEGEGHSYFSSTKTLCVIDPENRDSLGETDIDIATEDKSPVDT

IC50	Structure (SMILES)
3900 nM	COc1ccc(/C=C/n2c(C)cc(=O)cc2C)cc1OC(=O)C1CC1 [Example 72, (E)-1-((3-cyclopropylformyloxy-4-methoxy)-styryl)-2,6-dimethylpyridin-4(1H)-one]
36 nM	COc1ccc(C(Cn2c(C)cc(=O)cc2C)OC(=O)C2CC2)cc1OCC1CC1 (stereo not drawn) [Example 4, (1-(3-cyclopropylmethoxy-4methoxyphenyl)-2-(2,6-dimethyl-4-carbonylpyridin-1(4H)-yl)ethyl) cyclopropylcarboxylate]
10.2 nM	COc1ccc(/C=C/n2c(C)cc(=O)cc2C)cc1OC1CCCC1 [Example 62, (E)-1-((3-cyclopentyloxy-4-methoxy)-styryl)-2,6-dimethylpyridin-4(1H)-one]
180 nM	COc1ccc(/C=C/n2ccc(=O)cc2)cc1OCC1CC1 [Example 50, (E)-1-(3-cyclopropylmethoxy-4-methoxystyryl)pyridin-4(1H)-one]
2.4 nM	Cc1cc(=O)cc(C)n1/C=C/c1ccc(OC(F)F)c(OC2CCSC2)c1 (stereo not drawn) [Example 96, (E)-1-((3-(tetrahydrothiophen-3-yl)oxy-4-difluoromethoxy)-styryl)-2,6-dimethylpyridin-4(1H)-one]
36 nM	COc1ccc(/C=C/n2c(C)cc(=O)cc2C)cc1OCC[S+](C)[O-] (stereo not drawn) [Example 78, (E)-1-(3-methylsulfoxideethoxy-4-methoxystyryl)-2,6-dimethylpyridin-4(1H)-one]
3.8 nM	COc1ccc(/C=C/n2c(C)cc(=O)cc2C)cc1O[C@@H]1CCSC1 [Example 85, (R,E)-1-(3-(tetrahydrothiophen-3-yl)oxy-4-methoxystyryl)-2,6-dimethylpyridin-4(1H)-one]
4.9 nM	COc1ccc(/C(Cn2c(C)cc(=O)cc2C)=N/OC[S+](C)[O-])cc1OCC1CC1 (stereo not drawn) [Example 43, (Z)-1-(2-(3-cyclopropylmethoxy-4-methoxyphenyl)-2-(methylsulfoxidemethoxyimido)ethyl)-2,6-dimethylpyridin-4(1H)-one]
520 nM	COc1ccc(/C=C/n2c(C)cc(=O)cc2C)cc1OCC=C(C)C [Example 65, (E)-1-((3-(3-methylbut-2-en-1-yl)oxy-4-methoxy)-styryl)-2,6-dimethylpyridin-4(1H)-one]
1.5 nM	Cc1cc(=O)cc(C)n1/C=C/c1ccc(OC(F)F)c(O[C@@H]2CCSC2)c1 [Example 100, (R,E)-1-(3-(tetrahydrothiophen-3-yl)oxy-4-difluoromethoxystyryl)-2,6-dimethylpyridin-4(1H)-one]
3600 nM	COc1ccc(/C=C(\C(N)=O)n2c(C)cc(=O)cc2C)cc1OCC1CC1 [Example 117]
20 nM	COc1ccc(C(=O)Cn2c(C)cc(=O)cc2C)cc1OCC1CCC1 [Example 22, 1-(2-(3-cyclobutylmethoxy-4-methoxyphenyl)-2-oxo)ethyl-2,6-dimethylpyridin-4(1H)-one]
11.5 nM	COc1ccc(C(=O)Cn2c(C)cc(=O)cc2C)cc1OC1CC=CC1 [Example 25, 1-(2-(3-(cyclopent-3-en-1-yloxy)-4-methoxyphenyl)-2-oxoethyl)-2,6-dimethylpyridin-4(1H)-one]
5.5 nM	COc1ccc(/C=C/n2c(C)cc(=O)cc2C)cc1OC1CC1 [Example 58, (E)-1-(3-cyclopropyloxy-4-methoxystyryl)-2,6-dimethylpyridin-4(1H)-one]
32 nM	COc1ccc(C(=O)Cn2c(C)cc(=O)cc2C)cc1OCCSC [Example 35, 1-(2-(3-methylthioethoxy-4-methoxyphenyl)-2-oxoethyl)-2,6-dimethylpyridin-4(1H)-one]
450 nM	COc1ccc(/C(=C/n2c(C)cc(=O)cc2C)C(N)=O)cc1OCC1CC1 [Example 107, (Z)-2-(3-cyclopropylmethoxy-4-methoxyphenyl)-3-(2,6-dimethyl-4-carbonylpyridin-1(4H)-yl)-acrylamide]
26 nM	Cc1cc(=O)cc(C)n1/C=C/c1ccc(OC(F)F)c(O[C@@H]2CC[S+]([O-])C2)c1 (single isomer, unassigned) [Example 101-2]

IC50	Structure (SMILES)
26 nM	COc1ccc(C(=O)Cn2c(C)cc(=O)cc2C)cc1OC1CCCO1 (stereo not drawn) [Example 31, 1-(2-(3-(tetrahydrofuran-2-yl)oxy-4-methoxyphenyl)-2-oxoethyl)-2,6-dimethylpyridin-4(1H)-one]
100 nM	COc1ccc(/C=C/n2c(C)cc(=O)cc2C)cc1OCC(C)(C)C [Example 57, (E)-1-((3-neopentyloxy-4-methoxy)-styryl)-2,6-dimethylpyridin-4(1H)-one]
1.22 nM	COc1ccc(/C(Cn2c(C)cc(=O)cc2C)=N/OCSC)cc1OCC1CC1 [Example 41, (Z)-1-(2-(3-cyclopropylmethoxy-4-methoxyphenyl)-2-(methylthiomethoxyimido)ethyl)-2,6-dimethylpyridin-4(1H)-one]
1.6 nM	CC#C/C(=C\n1c(C)cc(=O)cc1C)c1ccc(OC(F)F)c(OCC2CC2)c1 [Example 114, (Z)-1-(2-(3-cyclopropylmethoxy-4-difluoromethoxyphenyl)pent-1-en-3-yn-1-yl)-2,6-dimethylpyridin-4(1H)-one]
170 nM	COc1ccc(C(=O)Cn2ccc(=O)cc2)cc1OCC1CC1 [Example 45, 1-(2-(3-cyclopropylmethoxy-4-methoxyphenyl)-2-oxoethyl)pyridin-4(1H)-one]
830 nM	COc1ccc(C(=O)Cn2c(C)cc(=O)cc2C)cc1OC[S+](C)[O-] (stereo not drawn) [Example 33, 1-(2-(3-methylsulfoxidemethoxy-4-methoxyphenyl)-2-oxoethyl)-2,6-dimethylpyridin-4(1H)-one]
116 nM	COc1ccc(C(=O)Cn2c(C)cc(=O)cc2C)cc1OC1COC1 [Example 30, 1-(2-(3-(oxacyclobutan-3-yl-oxy)-4-methoxyphenyl)-2-oxoethyl)-2,6-dimethylpyridin-4(1H)-one]
106 nM	COc1ccc(/C=C/n2c(C)cc(=O)cc2C)cc1O[C@H]1CC[S+]([O-])C1 (single isomer, unassigned) [Example 83-2]
4.9 nM	CCCOc1cc(C(=O)Cn2c(C)cc(=O)cc2C)ccc1OC [Example 13, 1-(2-(3-propoxy-4-methoxyphenyl)-2-oxoethyl)-2,6-dimethylpyridin-4(1H)-one]
3.7 nM	Cc1cc(=O)cc(C)n1/C=C/c1ccc(OC(F)F)c(O[C@H]2CCSC2)c1 [Example 97, (S,E)-1-(3-(tetrahydrothiophen-3-yl)oxy-4-difluoromethoxystyryl)-2,6-dimethylpyridin-4(1H)-one]
7.5 nM	COc1ccc(/C=C/n2c(C)cc(=O)cc2C)cc1O[C@H]1CCSC1 [Example 82, (S,E)-1-(3-(tetrahydrothiophen-3-yl)oxy-4-methoxystyryl)-2,6-dimethylpyridin-4(1H)-one]
81 nM	COc1ccc(/C=C/n2c(C)cc(=O)cc2C)cc1O[C@@H]1CC[S+]([O-])C1 (single isomer, unassigned) [Example 86-2]
1420 nM	CNC(=O)COc1cc(/C=C/n2c(C)cc(=O)cc2C)ccc1OC [Example 71, (E)-2-(5-(2-(2,6-dimethyl-4-carbonylpyridin-1(4H)-yl)ethenyl)-2methoxyphenoxy)-N-methylacetamide]
460 nM	CCN(CC)C(=O)/C(=C\n1c(C)cc(=O)cc1C)c1ccc(OC)c(OCC2CC2)c1 [Example 110, (Z)-2-(3-cyclopropylmethoxy-4-methoxyphenyl)-3-(2,6-dimethyl-4-carbonylpyridin-1(4H)-yl)-N,N-diethylacrylamide]
15 nM	CCCOc1cc(/C=C/n2c(C)cc(=O)cc2C)ccc1OC [Example 53, (E)-1-(3-propoxy-4-methoxystyryl)-2,6-dimethylpyridin-4(1H)-one]
4.5 nM	CCCCCCOc1cc(C(=O)Cn2c(C)cc(=O)cc2C)ccc1OC [Example 18, 1-(2-(3-n-hexyloxy-4-methoxyphenyl)-2-oxoethyl)-2,6-dimethylpyridin-4(1H)-one]
11.1 nM	COc1ccc(/C=C/n2c(C)cc(=O)cc2C)cc1OC1CC=CC1 [Example 63, (E)-1-(3-(cyclopent-3-en-1-yloxy)-4-methoxystyryl)-2,6-dimethylpyridin-4(1H)-one]

Structure (SMILES)	IC50
CCCCOc1cc(C(=O)Cn2c(C)cc(=O)cc2C)ccc1OC [Example 15, 1-(2(3-n-butoxy-4-methoxyphenyl)-2-oxoethyl)-2,6-dimethylpyridin-4(1H)-one]	33 nM
CCCCOc1cc(/C=C/n2c(C)cc(=O)cc2C)ccc1OC [Example 55, (E)-1-((3-n-butoxy-4-methoxy)-styryl)-2,6-dimethylpyridin-4(1H)-one]	54 nM

— patent publication US11440886B2, “Anti-inflammatory compound, and preparation and use thereof” (E-Nitiate Biopharmaceuticals (Hangzhou) Co., Ltd., priority 2018, dated 2022)
